This test addresses PKMζ (protein kinase Mzeta) (Homo sapiens, UniProt Q05513). In words: split-Venus BiFC of KIBRA-PKMζ dimerization in HEK293T cells. In kind it is cell-based.

SMILES strings stand for the structures.

Sequence of PKMζ (protein kinase Mzeta) (Q05513 184-592 limits assumed): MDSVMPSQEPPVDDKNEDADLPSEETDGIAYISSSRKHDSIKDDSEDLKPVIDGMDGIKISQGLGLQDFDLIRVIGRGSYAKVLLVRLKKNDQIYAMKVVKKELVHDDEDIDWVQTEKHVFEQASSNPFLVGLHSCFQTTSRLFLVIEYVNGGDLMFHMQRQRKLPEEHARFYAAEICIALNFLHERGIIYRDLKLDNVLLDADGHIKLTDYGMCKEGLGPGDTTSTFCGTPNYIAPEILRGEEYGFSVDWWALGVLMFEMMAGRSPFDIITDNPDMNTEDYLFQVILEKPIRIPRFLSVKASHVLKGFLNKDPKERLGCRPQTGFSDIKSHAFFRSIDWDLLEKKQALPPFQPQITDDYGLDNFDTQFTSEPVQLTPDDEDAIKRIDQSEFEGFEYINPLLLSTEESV
Sequence of PKMζ (protein kinase Mzeta) (Q8IX03 whole entry partner): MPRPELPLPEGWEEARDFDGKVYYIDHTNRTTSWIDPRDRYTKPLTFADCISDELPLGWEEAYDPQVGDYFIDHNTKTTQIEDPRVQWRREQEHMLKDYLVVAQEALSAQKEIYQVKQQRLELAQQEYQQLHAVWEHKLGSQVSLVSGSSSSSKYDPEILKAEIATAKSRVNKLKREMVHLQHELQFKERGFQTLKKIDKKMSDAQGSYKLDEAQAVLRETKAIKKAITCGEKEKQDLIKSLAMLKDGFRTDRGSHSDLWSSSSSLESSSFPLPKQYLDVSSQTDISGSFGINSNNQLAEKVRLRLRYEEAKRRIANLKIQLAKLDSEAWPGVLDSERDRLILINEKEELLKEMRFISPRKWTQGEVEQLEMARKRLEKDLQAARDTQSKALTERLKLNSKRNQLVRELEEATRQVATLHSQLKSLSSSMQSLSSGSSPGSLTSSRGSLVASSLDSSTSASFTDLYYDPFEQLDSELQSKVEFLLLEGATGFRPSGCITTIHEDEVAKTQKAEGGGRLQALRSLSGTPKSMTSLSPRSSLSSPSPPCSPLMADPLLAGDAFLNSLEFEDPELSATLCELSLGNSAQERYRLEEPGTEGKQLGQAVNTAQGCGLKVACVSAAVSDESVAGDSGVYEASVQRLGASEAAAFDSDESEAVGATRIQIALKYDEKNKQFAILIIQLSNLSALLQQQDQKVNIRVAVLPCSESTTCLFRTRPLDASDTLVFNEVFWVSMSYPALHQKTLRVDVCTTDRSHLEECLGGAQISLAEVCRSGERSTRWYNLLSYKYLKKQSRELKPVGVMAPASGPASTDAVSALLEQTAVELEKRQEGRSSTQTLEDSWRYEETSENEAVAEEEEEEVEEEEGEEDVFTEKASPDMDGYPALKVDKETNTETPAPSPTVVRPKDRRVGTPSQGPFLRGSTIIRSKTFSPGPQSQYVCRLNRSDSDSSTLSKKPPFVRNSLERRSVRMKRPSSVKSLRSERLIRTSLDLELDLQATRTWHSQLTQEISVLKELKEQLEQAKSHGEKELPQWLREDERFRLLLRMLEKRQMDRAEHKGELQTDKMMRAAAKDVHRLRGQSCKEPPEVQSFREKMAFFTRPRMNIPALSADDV

As to `O=S(=O)(O)c1cc(O)c2c(S(=O)(=O)O)cc(S(=O)(=O)O)cc2c1` [ζ-stat, 1-naphthol-3,6,8-trisulfonic acid], the IC50 (commonly the midpoint of a concentration-inhibition curve) was about 1000 nM.
